# Test results as given in US20100168054A1, “Functionalized Beta 1,6 Glucosamine Disaccharides and Process for Their Preparation” (OM PHARMA, priority 2006, published 2010).
# Legend:
# [1] = system: human peripheral blood mononuclear cells (PBMC); assay: IL-6 secretion by human PBMC (ELISA); format: cell-based; details: for IL6: 24 h
# Description: Peripheral blood from healthy donors (Centre de transfusion, Hôpital Universitaire, Geneva) was centrifuged to get the buffy coat. The buffy coat was mixed with Hanks' balanced saline solution (HBSS, Sigma, Buchs, Switzerland), layered over Ficoll Paque Plus (Amersham Pharmacia) to 1.077 g/mL and centrifuged (2800 rpm, 20° C., 25 min). Cells harvested from the interphase were washed twice in HBSS at 800 rpm for 15 min at room temperature and the pelleted cells were resuspended in HBSS. The cell counts were performed using a Neubauer cell. All cell cultures were performed in RPMI-1640 medium supplemented with penicillin (100 U/mL), streptomycin (100 μg/mL), L-glutamine (2 mmol/L) and 10% fetal calf serum (FCS), all obtained from Sigma. For in vitro stimulation, the cells were cultured at a concentration of 1×10^6 viable cells/well.
# PBMC were incubated at 37° C. and under 5% CO2 atmosphere with the controls (see below) and with the products of the invention at 1, 5, and 20 μg/mL for IL-6, and at 0.2, 2, and 20 μg/mL for TNF-α secretion. Medium: RPMI alone.
# The surpernatants of the cultures were harvested after 24 h and the concentration of IL-6 and TNF-α were measured by an enzyme-linked immunosorbent assay (ELISA) (Human IL-6 and TNF-α ELISA Set, BD OptEIA, San Diego, USA), according to the manufacturer instructions. The detection limits were 10 and 8 pg/mL respectively.
# PBMC are incubated at 37° C. and under 5% CO2 atmosphere with the products of the invention.
# The supernatants of the cultures are harvested after 24 h and the concentration of IL-6 was measured by an enzyme-linked immunosorbent assay (ELISA) (Human IL-6 ELISA Set, BD OptEIA, San Diego, USA), according to the manufacturer instructions. The detection limit was 10 pg/mL.
# murine macrophages = assay: Nitric oxide production by murine macrophages (Griess reaction); format: cell-based, C57/BL6 mice; details: 22 h
# Text: Experimental assay of nitric oxide production by murine macrophages: Six-week old male C57/BL6 mice (six weeks old male, SPF quality, Charles Rivier, FR) were killed by CO2 inhalation. The hip, femur, and tibia from the posterior appendage were removed. The bone marrow was extracted from the lumen by injecting Dulbecco's Modified Eagle Medium (DH) through the bone after cutting both end portions. After washing, the stem cells were resuspended (40'000 cells/mL) in DH medium supplemented with 20% horse serum and 30% L929 cell supernatant. The cell suspension is incubated for 8 days in an incubator at 37° C. under 8% CO2 and moisture-saturated atmosphere. Macrophages are then detached with ice-cold PBS, washed and resuspended in DH medium supplemented with 5% fetal calf serum (FCS), amino acids and antibiotics (DHE medium). The cell density is adjusted to 700′000 cells/mL. Aqueous solutions of the products are serially diluted in DHE medium directly in microtiter plates. The products are tested in triplicates and each microtiter plate comprises a negative control composed of medium. The final volume in each well is […]. 100 μL of the cell suspension are added to the diluted products and the cells are incubated for 22 h in an incubator at 37° C., under 8% CO2 and a moisture-saturated atmosphere. At the end of the incubation period, 100 μL of supernatant are transferred to another microtiter plate and the nitrite concentration produced in each supernatant is determined by running a Griess reaction. 100 μL of Griess reagent (5 mg/mL of sulfanilamide+0.5 mg/mL of N-(1-naphtyl)ethylene-diamine hydrochloride) in 2.5% aqueous phosphoric acid, are added to each well. The microtiter plates are read with a spectrophotometer (SpectraMax Plus, Molecular Devices) at 562 nm against a reference at 690 nm. The nitrite concentration is proportional to nitric oxide content being formed. The nitrite content is determined based on a standard curve. The results are given as mean value±standard deviation and plotted as a dose response curve.
# TLR2 and CD14 = molecular target: T1, TLR2 and CD14 (Homo sapiens, UniProt O60603); assay: HEK-TLR2-CD14 IL-8 secretion; format: cell-based; details: 24 h
# T1 construct: expressed in transfected cells; host or cells: HEK (HEK-TLR2-CD14 cell line)
# Text: The HEK293 cell line was chosen for its null or low basal expression of the TLR genes. These cells enable efficient monitoring of TLR activity using ELISA analysis such as IL-8 titration or reporter-based systems that monitor TLR-induced NF-κB activation. HEK-TLR2 cells (Invivogen, Toulouse, France) are engineered HEK293 cells stably transfected with multiple genes from the TLR2 pathway that include TLR2 and genes participating in the recognition or involved in the signaling cascade. These cells secrete IL-8 after TLR2 stimulation. The experiments were performed according to manufacturers' instructions. Briefly, 2×10^4 cells/well (200 ul RPMI) are incubated at 37° C. during 3 days (5% CO2). The medium is removed, and 90 ul RPMi+5% FCS is added to the wells Then the agonists and controls are added (10 ul/well). The cells return to the incubator for 24 hours. The supernatants are collected and the IL-8 ELISA is performed according to manufacturer's instructions These preliminary results were confirmed in another cell line expressing concomitantly TLR2 and CD14. The procedure used is similar to the one described just above.
# [2] = system: human peripheral blood mononuclear cells (PBMC); assay: TNF-α secretion by human PBMC (ELISA); format: cell-based; details: 24 h
# Summary of the method: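 Ficoll-isolated PBMC from healthy donors were cultured at 1×10^6 viable cells/well in RPMI-1640 with 10% FCS. Cells were incubated at 37° C. in 5% CO2 with compound at 0.2, 2 and 20 μg/mL. TNF-α in 24 h supernatants was measured by ELISA, with a detection limit of 8 pg/mL.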
# T1 sequence (O60603 21-784): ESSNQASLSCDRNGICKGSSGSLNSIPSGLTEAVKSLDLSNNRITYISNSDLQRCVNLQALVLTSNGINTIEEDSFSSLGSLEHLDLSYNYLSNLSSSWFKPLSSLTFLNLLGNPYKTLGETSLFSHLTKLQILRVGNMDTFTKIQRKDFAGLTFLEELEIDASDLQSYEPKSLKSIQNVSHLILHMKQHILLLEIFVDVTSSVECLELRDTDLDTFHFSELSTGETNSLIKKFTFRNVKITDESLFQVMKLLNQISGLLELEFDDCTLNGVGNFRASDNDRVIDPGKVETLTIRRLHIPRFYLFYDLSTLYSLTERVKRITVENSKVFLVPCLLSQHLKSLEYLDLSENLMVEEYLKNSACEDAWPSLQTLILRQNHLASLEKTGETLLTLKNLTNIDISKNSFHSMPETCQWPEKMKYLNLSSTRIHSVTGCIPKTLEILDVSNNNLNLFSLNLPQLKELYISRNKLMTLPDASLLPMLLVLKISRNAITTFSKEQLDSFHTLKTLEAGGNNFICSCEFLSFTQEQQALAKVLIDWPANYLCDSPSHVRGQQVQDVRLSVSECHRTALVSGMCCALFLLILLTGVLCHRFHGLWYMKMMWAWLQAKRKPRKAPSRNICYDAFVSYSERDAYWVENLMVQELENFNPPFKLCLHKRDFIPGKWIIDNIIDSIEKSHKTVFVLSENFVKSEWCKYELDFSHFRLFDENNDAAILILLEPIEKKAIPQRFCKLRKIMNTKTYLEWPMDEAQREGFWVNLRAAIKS
smiles,measurement,setting,value
"CCCCCCCCCCCC(=O)O[C@H](CCCCCCCCCCC)CC(=O)N[C@H]1[C@H](OC[C@H]2O[C@H](OCC(O)CO)[C@H](NC(=O)C[C@H](O)CCCCCCCCCCC)[C@@H](O)[C@@H]2O)O[C@H](CO)[C@@H](OP(=O)(O)O)[C@@H]1O (stereo partly drawn) [compound 19, 2,3-Dihydroxypropyl-2-Deoxy-6-O-[2-deoxy-4-O-(dihydroxyphosphoryl)-2-[(R)-3-dodecanoyloxytetradecanoylamino]-β-D-glucopyranosyl]-2-[(R)-3-hydroxytetradecanoylamino]-α-D-glucopyranoside]",IL6,[1]; 1 μg/ml,44.5 pg/mL
same,IL6,[1]; 5 μg/ml,95.9 pg/mL
same,IL6,[1]; 20 μg/ml,199.1 pg/mL
same,IL-6 secretion (in words),"[1]; 1, 5, 20 μg/ml",able to induce IL-6 secretion
same,dose from which active (nitric oxide production),murine macrophages,≥ 0.01 µg/mL
same,"nitric oxide production (in words), FIG. 25",murine macrophages,able to induce high levels of nitric oxide
same,"IL-8 secretion, mean",TLR2 and CD14; 14 ng/ml,0.05 pg/mL
same,"IL-8 secretion, mean",TLR2 and CD14; 41 ng/ml,0.03 pg/mL
same,"IL-8 secretion, mean",TLR2 and CD14; 124 ng/ml,0.11 pg/mL
same,"IL-8 secretion, mean",TLR2 and CD14; 370 ng/ml,0.10 pg/mL
same,"IL-8 secretion, mean",TLR2 and CD14; 1111 ng/ml,0.17 pg/mL
same,"IL-8 secretion, mean",TLR2 and CD14; 3333 ng/ml,0.26 pg/mL
same,"IL-8 secretion, mean",TLR2 and CD14; 10000 ng/ml,0.65 pg/mL
same,TNF-α,[2]; 0.2 μg/ml,9.2 pg/mL
same,TNF-α,[2]; 2 μg/ml,5.1 pg/mL
same,TNF-α,[2]; 20 μg/ml,11.2 pg/mL
